Laboratory results reported in patent US9187446B2, “Antibacterial agents: sidechainfluorinated myxopyronin derivatives” (RUTGERS, THE STATE UNIVERSITY OF NEW JERSEY, priority 2012, dated 2015).
Converted amounts (≈) assume the structure as drawn. Read-outs that look alike come from different tables or passages of the source.

Tests used:
[1] = test system: Francisella tularensis strain SCHU4; experiment: microbe, parasite or virus in culture; format: cell-based
[2] = target: S. aureus RNA polymerase core enzyme, S. aureus σ^A (Staphylococcus aureus, UniProt P47768+Q2G0N5); experiment: Fluorescence-detected inhibition of Staphylococcus aureus RNA polymerase; format: biochemical
Experimental: (§1) Fluorescence-detected RNA polymerase assays with E. coli RNA polymerase were performed by a modification of the procedure of Kuhlman et al., 2004 [Kuhlman, P., Duff, H. & Galant, A. (2004) A fluorescence-based assay for multisubunit DNA-dependent RNA polymerases. Anal. Biochem. 324, 183-190]. Reaction mixtures contained (20 μl): 0-100 nM test compound, 75 nM E. coli RNA polymerase σ^70 holoenzyme, 20 nM 384 bp DNA fragment containing the bacteriophage T4 N25 promoter, 100 μM ATP, 100 μM GTP, 100 μM UTP, 100 μM CTP, 50 mM Tris-HCl, pH 8.0, 100 mM KCl, 10 mM MgCl2, 1 mM DTT, 10 μg/ml bovine serum albumin, and 5.5% glycerol. Reaction components other than DNA and NTPs were pre-incubated for 10 min at 37° C. Reactions were carried out by addition of DNA and incubation for 5 min at 37° C., followed by addition of NTPs and incubation for 60 min at 37° C. DNA was removed by addition of 1 μl 5 mM CaCl2 and 2 U DNaseI (Ambion, Inc.), followed by incubation for 90 min at 37° C. RNA was quantified by addition of 100 μl RiboGreen RNA Quantitation Reagent (Invitrogen, Inc.; 1:500 dilution in Tris-HCl, pH 8.0, 1 mM EDTA), followed by incubation for 10 min at 25° C., followed by measurement of fluorescence intensity [excitation wavelength=485 nm and emission wavelength=535 nm; QuantaMaster QM1 spectrofluorometer (PTI, Inc.)]. IC50 is defined as the concentration of inhibitor resulting in 50% inhibition of RNA polymerase activity.
(§2) Fluorescence-detected RNA polymerase assays with S. aureus RNA polymerase were performed as in Example 17.1, using reaction mixtures containing (20 μl): 0-100 nM test compound, 75 nM S. aureus RNA polymerase core enzyme, 300 nM S. aureus σ^A, 20 nM 384 bp DNA fragment containing the bacteriophage T4 N25 promoter, 100 μM ATP, 100 μM GTP, 100 μM UTP, 100 μM CTP, 40 mM Tris-HCl, pH 8.0, 80 mM NaCl, 5 mM MgCl2, 2.5 mM DTT, and 12.7% glycerol. IC50 is defined as the concentration of inhibitor resulting in 50% inhibition of RNA polymerase activity.

[3] = test system: Bacillus anthracis strain Vollum 1 b; experiment: microbe, parasite or virus in culture; format: cell-based
[4] = test system: Enterococcus faecalis ATCC strain 19433; experiment: MIC, spiral gradient endpoint assay, E. faecalis; settings: for MIC: Enterococcus faecalis, ATCC19433, 16 h, read-out: MIC E. faecalis 19433
[5] = test system: Escherichia coli D212f2tolC; settings: MIC in presence of 10% mouse serum divided by MIC in absence of 10% mouse serum
[6] = target: M. tuberculosis RNA polymerase core enzyme, M. tuberculosis σ^A (Mycobacterium tuberculosis, UniProt P9WGY7+P9WGY9); experiment: Fluorescence-detected inhibition of Mycobacterium tuberculosis RNA polymerase; format: biochemical
Experimental: as §1
as §2, with “assays with M. tuberculosis RNA polymerase” for “assays with S. aureus RNA polymerase”, “75 nM M. tuberculosis RNA polymerase” for “75 nM S. aureus RNA polymerase”, “300 nM M. tuberculosis σ^A, 20” for “300 nM S. aureus σ^A, 20”, “ATP, […], 100” for “ATP, 100 μM GTP, 100”

[7] = target: E. coli RNA polymerase σ^70 holoenzyme (Escherichia coli, UniProt P0A8T7+P0A8V2); experiment: Fluorescence-detected inhibition of Escherichia coli RNA polymerase; format: biochemical; settings: read-out: IC50 E. coli RNAP
Sequence of E. coli RNA polymerase σ^70 holoenzyme (P0A8V2 whole entry): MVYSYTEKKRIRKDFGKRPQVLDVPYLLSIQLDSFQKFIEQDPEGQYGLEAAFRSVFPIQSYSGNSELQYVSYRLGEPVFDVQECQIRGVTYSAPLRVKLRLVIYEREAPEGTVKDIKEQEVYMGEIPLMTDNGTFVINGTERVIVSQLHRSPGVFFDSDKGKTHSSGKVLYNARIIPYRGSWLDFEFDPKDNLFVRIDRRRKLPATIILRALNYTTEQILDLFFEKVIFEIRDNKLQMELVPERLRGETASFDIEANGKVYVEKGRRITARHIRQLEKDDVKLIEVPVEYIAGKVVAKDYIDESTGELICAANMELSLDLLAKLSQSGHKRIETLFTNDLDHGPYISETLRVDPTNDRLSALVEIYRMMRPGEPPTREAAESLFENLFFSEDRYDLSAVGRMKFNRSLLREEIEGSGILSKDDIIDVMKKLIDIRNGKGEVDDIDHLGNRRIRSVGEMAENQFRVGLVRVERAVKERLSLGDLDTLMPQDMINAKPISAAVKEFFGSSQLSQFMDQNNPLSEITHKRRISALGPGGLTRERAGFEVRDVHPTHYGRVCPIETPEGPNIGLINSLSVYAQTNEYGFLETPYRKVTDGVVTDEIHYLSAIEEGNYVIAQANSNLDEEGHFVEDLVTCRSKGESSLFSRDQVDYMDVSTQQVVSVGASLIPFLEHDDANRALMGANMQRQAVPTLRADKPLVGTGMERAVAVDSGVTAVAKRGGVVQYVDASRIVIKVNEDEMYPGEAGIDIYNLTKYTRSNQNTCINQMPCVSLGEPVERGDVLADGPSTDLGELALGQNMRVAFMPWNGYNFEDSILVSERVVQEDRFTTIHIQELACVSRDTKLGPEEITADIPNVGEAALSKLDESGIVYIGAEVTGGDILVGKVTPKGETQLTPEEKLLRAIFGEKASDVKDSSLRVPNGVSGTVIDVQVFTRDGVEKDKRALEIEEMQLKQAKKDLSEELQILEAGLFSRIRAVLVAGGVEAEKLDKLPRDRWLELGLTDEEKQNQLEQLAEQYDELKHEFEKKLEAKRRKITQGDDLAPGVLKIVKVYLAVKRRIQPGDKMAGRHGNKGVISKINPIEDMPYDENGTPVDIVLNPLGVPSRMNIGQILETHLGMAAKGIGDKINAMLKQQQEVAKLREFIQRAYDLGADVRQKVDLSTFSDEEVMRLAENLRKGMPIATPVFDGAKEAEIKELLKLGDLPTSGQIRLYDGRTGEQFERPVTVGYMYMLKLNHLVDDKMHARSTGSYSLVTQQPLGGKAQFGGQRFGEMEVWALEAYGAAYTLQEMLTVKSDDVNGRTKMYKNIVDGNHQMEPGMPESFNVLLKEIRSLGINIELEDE
Sequence of E. coli RNA polymerase σ^70 holoenzyme (P0A8T7 whole entry): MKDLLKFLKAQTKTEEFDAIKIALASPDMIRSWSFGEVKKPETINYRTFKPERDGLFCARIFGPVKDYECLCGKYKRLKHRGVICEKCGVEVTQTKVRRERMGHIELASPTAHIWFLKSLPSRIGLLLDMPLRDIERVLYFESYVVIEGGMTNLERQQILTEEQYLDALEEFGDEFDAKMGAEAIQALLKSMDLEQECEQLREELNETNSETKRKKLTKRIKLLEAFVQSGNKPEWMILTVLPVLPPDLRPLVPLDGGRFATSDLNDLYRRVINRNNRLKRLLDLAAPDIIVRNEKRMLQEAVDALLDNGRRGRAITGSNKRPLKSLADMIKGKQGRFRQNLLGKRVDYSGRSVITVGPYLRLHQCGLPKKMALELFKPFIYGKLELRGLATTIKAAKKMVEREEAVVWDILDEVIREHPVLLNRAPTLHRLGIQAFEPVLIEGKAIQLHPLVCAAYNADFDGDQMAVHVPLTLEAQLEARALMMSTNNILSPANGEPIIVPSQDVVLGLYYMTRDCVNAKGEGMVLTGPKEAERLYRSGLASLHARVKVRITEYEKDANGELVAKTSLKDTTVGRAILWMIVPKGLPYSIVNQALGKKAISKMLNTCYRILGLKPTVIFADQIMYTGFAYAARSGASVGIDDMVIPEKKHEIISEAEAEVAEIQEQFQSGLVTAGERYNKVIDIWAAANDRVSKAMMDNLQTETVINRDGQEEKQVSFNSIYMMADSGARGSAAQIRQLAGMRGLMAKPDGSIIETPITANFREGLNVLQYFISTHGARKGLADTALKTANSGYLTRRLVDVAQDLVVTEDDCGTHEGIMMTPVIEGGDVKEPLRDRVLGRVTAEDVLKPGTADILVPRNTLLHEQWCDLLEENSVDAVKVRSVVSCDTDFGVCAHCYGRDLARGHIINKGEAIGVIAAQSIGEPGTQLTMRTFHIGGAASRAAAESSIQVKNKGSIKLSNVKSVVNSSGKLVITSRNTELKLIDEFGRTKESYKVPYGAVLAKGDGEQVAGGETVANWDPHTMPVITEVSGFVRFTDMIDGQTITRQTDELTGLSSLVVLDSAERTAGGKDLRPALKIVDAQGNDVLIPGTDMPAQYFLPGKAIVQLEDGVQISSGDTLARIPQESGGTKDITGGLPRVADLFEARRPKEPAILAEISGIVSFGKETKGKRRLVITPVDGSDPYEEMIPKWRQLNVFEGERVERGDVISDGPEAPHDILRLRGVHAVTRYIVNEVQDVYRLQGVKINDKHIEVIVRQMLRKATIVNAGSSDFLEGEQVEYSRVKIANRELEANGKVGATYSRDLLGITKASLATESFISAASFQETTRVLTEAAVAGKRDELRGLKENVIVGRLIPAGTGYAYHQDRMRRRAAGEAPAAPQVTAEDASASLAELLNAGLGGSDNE
Sequence of E. coli RNA polymerase σ^70 holoenzyme (P0A7Z4 whole entry partner): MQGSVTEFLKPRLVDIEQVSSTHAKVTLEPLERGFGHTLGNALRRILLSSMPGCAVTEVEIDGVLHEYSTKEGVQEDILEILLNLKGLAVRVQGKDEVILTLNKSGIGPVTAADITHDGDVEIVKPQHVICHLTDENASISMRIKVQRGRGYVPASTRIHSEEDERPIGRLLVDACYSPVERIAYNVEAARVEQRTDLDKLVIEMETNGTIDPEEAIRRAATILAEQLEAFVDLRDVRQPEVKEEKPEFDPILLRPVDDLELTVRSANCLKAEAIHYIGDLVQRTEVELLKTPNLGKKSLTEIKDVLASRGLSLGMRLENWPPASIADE
Sequence of E. coli RNA polymerase σ^70 holoenzyme (P0A800 whole entry partner): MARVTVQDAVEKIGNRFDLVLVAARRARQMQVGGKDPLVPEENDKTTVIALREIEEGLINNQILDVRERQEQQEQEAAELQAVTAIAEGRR
Sequence of E. coli RNA polymerase σ^70 holoenzyme (P00579 whole entry partner): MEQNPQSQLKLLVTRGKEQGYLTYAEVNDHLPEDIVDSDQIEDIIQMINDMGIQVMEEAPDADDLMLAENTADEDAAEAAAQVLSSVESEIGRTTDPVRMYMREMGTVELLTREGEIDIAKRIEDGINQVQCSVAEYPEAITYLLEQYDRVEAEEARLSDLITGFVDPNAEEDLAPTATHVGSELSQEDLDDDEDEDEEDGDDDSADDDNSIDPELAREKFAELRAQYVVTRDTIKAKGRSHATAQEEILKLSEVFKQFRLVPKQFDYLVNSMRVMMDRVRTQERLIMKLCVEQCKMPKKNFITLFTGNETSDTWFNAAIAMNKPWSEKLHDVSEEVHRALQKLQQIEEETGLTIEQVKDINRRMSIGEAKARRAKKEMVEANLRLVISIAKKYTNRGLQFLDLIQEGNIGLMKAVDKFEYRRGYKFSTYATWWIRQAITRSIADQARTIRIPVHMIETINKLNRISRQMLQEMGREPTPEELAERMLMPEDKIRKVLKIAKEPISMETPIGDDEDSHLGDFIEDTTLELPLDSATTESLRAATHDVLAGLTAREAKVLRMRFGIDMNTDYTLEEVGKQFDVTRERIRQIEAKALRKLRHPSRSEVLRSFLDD
Experimental: as §1

[8] = test system: Burkholderia mallei strain CHN7; experiment: microbe, parasite or virus in culture; format: cell-based
[9] = not given; remark: listed apart in the source
[10] = test system: Burkholderia pseudomallei strain Human/Blood/OH/US/1994; experiment: microbe, parasite or virus in culture; format: cell-based
[11] = test system: Brucella melitensis strain 16M; experiment: microbe, parasite or virus in culture; format: cell-based
physchem = settings: pH 7.4
[12] = Metabolic stability in the presence of human liver microsomes
[13] = read-out: IC50 M. tuberculosis RNAP

Row | Structure (SMILES) | IC50 ([2]; read-out: IC50 S. aureus RNAP) [nM] | serum shift [5] | IC50 [6, 13] [nM] | IC50 [7] [nM] | MIC [4] [µg/mL] | also measured
1 | CCCC/C(C)=C/C=C(\C)C(=O)c1c(O)cc([C@H](C)CC/C=C/NC(=O)OC)oc1=O (racemic) [Myx B, (±)myxopyronin B, reference compound] | 70 | 16 | 100 | 10 | – | logD (pH 7.4): 1.8; MIC F. tularensis SCHU4 ([1]; broth microdilution): 2 µg/mL (≈ 4.63 µM); MIC B. anthracis Vollum1b ([3]; broth microdilution): 6 µg/mL (≈ 13.9 µM); MIC E. faecalis 19433 ([4]; 16 h at 37° C., Mueller-Hinton II agar): 20 µg/mL (≈ 46.3 µM); MIC B. mallei CHN7 ([8]; broth microdilution): 6 µg/mL (≈ 13.9 µM); half-life human liver microsomes [9]: 3 min; MIC B. pseudomallei Human/Blood/OH/US/1994 ([10]; broth microdilution): 30 µg/mL (≈ 69.5 µM); MIC B. melitensis 16M ([11]; broth microdilution): 3 µg/mL (≈ 6.95 µM)
2 | COC(=O)N/C=C/CCC(C)c1cc(O)c(C(=O)/C(C)=C/C=C(\C)CCCC(F)(F)F)c(=O)o1 (stereo not drawn) [compound 1, Methyl ((E)-5-(4-hydroxy-2-oxo-3-((2E,4E)-9,9,9-trifluoro-2,5-dimethylnona-2,4-dienoyl)-2H-pyran-6-yl)hex-1-en-1-yl)carbamate] | 10 | 8 | 30 | 4 | 9 (≈ 18.5 µM) | MIC ([1]; Francisella tularensis, SCHU4, read-out: MIC F. tularensis SCHU4): 3 µg/mL (≈ 6.18 µM); MIC ([3]; Bacillus anthracis, VOLLUM1B, read-out: MIC B. anthracis Vollum1b): 6 µg/mL (≈ 12.4 µM); logD (physchem): 1.4; higher metabolic stability than (±)myxopyronin B ([12]; human liver microsomes, relative to Myx B): 4 to 5 times; half-life ([12]; human, liver microsomes): 14 min; MIC ([8]; Burkholderia mallei, CHN7, read-out: MIC B. mallei CHN7): 10 µg/mL (≈ 20.6 µM); MIC ([10]; Burkholderia pseudomallei, read-out: MIC B. pseudomallei Human/Blood/OH/US/1994): 50 µg/mL (≈ 103 µM); MIC ([11]; Brucella melitensis, 16M, read-out: MIC B. melitensis 16M): 6 µg/mL (≈ 12.4 µM)
3 | COC(=O)N/C=C/CCC(C)c1cc(O)c(C(=O)/C(C)=C/C=C(\C)CCCCC(F)(F)F)c(=O)o1 (stereo not drawn) [compound 3, Methyl ((E)-5-(4-hydroxy-2-oxo-3-((2E,4E)-10,10,10-trifluoro-2,5-dimethyldeca-2,4-dienoyl)-2H-pyran-6-yl)hex-1-en-1-yl)carbamate] | – | 16 | – | 10 | 10 (≈ 20 µM) | IC50 [2]: 40 nM; IC50 [6]: 200 nM
4 | COC(=O)N/C=C/CCC(C)c1cc(O)c(C(=O)/C(C)=C/C=C(\C)CCC(F)(F)F)c(=O)o1 (stereo not drawn) [compound 5] | 100 | 8 | 100 | 4 | > 40 | –
5 | COC(=O)N/C=C/CCCc1cc(O)c(C(=O)/C(C)=C/C=C(\C)CCCC(F)(F)F)c(=O)o1 [compound 9, Methyl ((E)-5-(4-hydroxy-2-oxo-3-((2E,4E)-9,9,9-trifluoro-2,5-dimethylnona-2,4-dienoyl)-2H-pyran-6-yl)pent-1-en-1-yl)carbamate] | – | 8 | 60 | 5 | 10 (≈ 21.2 µM) | –
6 | COC(=O)N/C=C/CCCc1cc(O)c(C(=O)/C(C)=C/C=C(\C)CCC(F)(F)F)c(=O)o1 [compound 11, Methyl ((E)-5-(4-hydroxy-2-oxo-3-((2E,4E)-8,8,8-trifluoro-2,5-dimethylocta-2,4-dienoyl)-2H-pyran-6-yl)pent-1-en-1-yl)carbamate] | – | 4 | – | 20 | > 40 | –
